Data on one compound can be found in US20240351981A1, “NOVEL BISMALEIMIDE COMPOUNDS HAVING IMPROVED SOLUBILITY AND THEIR USE IN CURABLE COMPOSITIONS” (Evonik Operations GmbH, priority 2021, published 2024).

This data set is described as follows: Solubility of bismaleimides in organic solvents (saturated solution, gravimetric). The format is physicochemical. To be noted: in comparison to other aliphatic bismaleimides. On the procedure: The solubility of compounds in the present invention is determined as follows: • 10 g of a sample are weighed into a 100 ml conical flask. 50 ml of a solvent are added to the flask and the mixture is stirred with magnetic bar for 1 h at 25° C. to assure the formation of a saturated solution. If the entire sample is dissolved, additional portion of the sample should be added and the mixture should be stirred further for 1 h. In the end, a portion of undissolved material should be clearly seen at the bottom of the flask. After that, the supematant is filtered through a folded filter. Some 15 g of the filtrate are weighed into a tared round-bottom flask, and the solvent is evaporated to dryness on a rotary evaporator at 90° C. under reduced pressure. Finally, the flask is dried in a vacuum drying cabinet at 120° C. for 2 h under reduced pressure, cooled down to room temperature in a desiccator and weighed.
The solubility value is then calculated as:
The solubility of the example and comparative examples was determined as follows: • 10 g of a sample were weighed into a 100 ml conical flask. 50 ml of a solvent were added to the flask and the mixture was stirred with magnetic bar for 1 h at 25° C. to assure the formation of a saturated solution. If the entire sample was dissolved, additional portion of the sample should be added and the mixture should be stirred further for 1 h. […]

In the case of `CC1CC(C(CN2C(=O)C=CC2=O)CN2C(=O)C=CC2=O)CC(C)(C)C1` (stereo not shown) [2-(3,3,5-trimethylcyclohexyl)propane-1,3-bismaleimide], the “Solubility in different organic solvents (in words)” value is given as “highly soluble”.
